From US8609897B2, “Trifluoromethylsulfonamide gamma secretase inhibitor” (Merck Sharp & Dohme Corp., priority 2009, dated 2013) come the findings set out here.

In series [1] the target is semi-purified γ-secretase. Kind of series: In vitro APP processing (C100Flag substrate, semi-purified γ-secretase, MESO Scale ELISA), rat brain membranes. The format is biochemical. The following applies: in vitro assay. The method, then: (§1) In Vitro APP Processing (Assay Quatitates Aβ Analytes Generated from a Recombinant APPC100Flag Substrate Incubated with Semi-Purified γ-Secretase)
(§2) The effect of compounds on the abundance of Aβ40 and Aβ42 peptides generated from exogenous C100Flag substrate by semi-purified γ-secretase was determined by MESO Scale ELISA. Generation of signal in this MESO Scale assay requires an anti-amyloid monoclonal antibody (clone 408) conjugated with streptavidin to bind to a biotin-coated plate. Specific [Ru(bpy)3]2+-labeled monoclonal antibodies for either Aβ40 (G210) or Aβ42 (12F4) subsequently generate an electrochemiluminescence signal upon electrochemical stimulation. The assay was accomplished by incubating compound, C100Flag substrate and CHAPSO-solubilized P2 membranes from HeLa cells or brains of mouse, rat, or dog. The reaction was then transferred to two different biotinylated microplates for detection of either Aβ40 or Aβ42.

The next series has as its system CSF Aβ40. The series can be described thus: Example A: CSF Aβ40 reduction and tolerability in Rhesus monkeys, 30 mg/kg PO, one week. The format is in vivo. The source says:
(§3) Peak lowering of ˜46% was observed 24 hrs after each dose. […] Terminal phase pharmacokinetic characteristics of Example 1 in Rhesus monkey provide continuous inhibition over the course of one week achieving both an average as well as minimum reduction of CSF Aβ40 of >25%.

The nature of series [2]: Example A: PK profile in Rhesus monkeys, 30 mg/kg PO single dose. The format is in vivo. As to conditions: rhesus monkey, plasma.
Source text: as §3

In series [3] the target is semi-purified γ-secretase. Kind of series: In vitro APP processing (C100Flag substrate, semi-purified γ-secretase, MESO Scale ELISA), dog brain membranes. The following applies: in vitro assay. The format is biochemical. How it is done:
as §1, §2

Series [4] in a line: Pharmacokinetics in Sprague Dawley rats. The format is in vivo. As to conditions: Rat; for AUC (Norm)(0-x) / clearance / half-life: 0.25 mg/kg; for clearance / half-life / bioavailability: Sprague Dawley, plasma; for clearance: intravenous; for bioavailability: 0.25 mg/kg IV or PO. The method, then: (§4) Pharmacokinetic parameters were determined in Sprague Dawley rats, Beagle dogs and Rhesus monkeys by dosing the compounds intravenously (IV) or orally (PO). A dose of 0.25 mg/kg was administered either IV or PO to each subject with a dosing solution of 0.25 mg/ml in a 30:70 v/v mixture of PEG400:40% Captisol®. Plasma samples were collected at 5 min. (IV only), 15 min., 30 min., 1 h, 2 h, 4 h, 6 h, 8 h, 24 h, 48 h, 72 h, 96 h, 120 h, 144 h, and 168 h. Samples were analyzed by LC-MS/MS (API5000™) to determine the concentration in plasma. Briefly, 50 μL plasma was precipitated with 200 μL acetonitrile containing an appropriate internal standard. Samples were filtered, 500 μL of water was added to each sample and 10 μL of this was injected on a C18 column (2.0 mm×30 mm, 3 μm particle size) and eluted using a gradient LC method with water containing 0.1% formic acid as the aqueous mobile phase, and acetonitrile containing 0.1% formic acid as the organic phase. Electrospray ionization with multiple reaction monitoring was used for MS/MS detection. Plasma concentration of the compounds was determined using a standard curve that was prepared similar to the samples in the respective matrix. Non-compartmental analysis was performed using Watson 7.2 to generate the PK parameters.

The test system of a further series is CSF Aβ40 and Aβ42. Kind of series: Example B: CSF Aβ40 and Aβ42 levels and tolerability in rhesus monkeys, once-weekly oral 30 mpk. The following applies: oral once-weekly 30 mpk. The format is in vivo. How it is done:
Example 1 was administered orally to rhesus monkeys once-weekly at a dose of 30 mpk and levels of Aβ40 and Aβ42 in the cerebrospinal fluid (CSF) were monitored.

For series [5], the system named is γ-secretase (APP processing), SH-SY5Y cells expressing amyloid β protein (SP4CT cells). The series can be described thus: APP processing, secreted Aβ40 and Aβ42 from SH-SY5Y (SP4CT) cells, AlphaLisa. As to conditions: cell based assay. How it is done:
APP Processing (Assay Quantitates Secreted Aβ Analytes from Cell Lines):
The effect of compounds on the abundance of Aβ40 and Aβ42 peptides generated from SH-SY5Y cells expressing amyloid β protein (SP4CT cells) was determined by an AlphaLisa™ assay. Analogous to an ELISA assay, generation of signal in this AlphaLisa™ assay requires “donor” and “acceptor” beads to be brought in close proximity by specific antibody recognition of either Aβ40 or Aβ42 peptides. The assay was accomplished by removing media from compound-treated SP4CT cells to two different microplates, followed by the addition of donor beads conjugated with streptavidin binding a biotinylated anti-amyloid β monocolonal antibody (clone 408). Acceptor beads directly conjugated with anti-Aβ40 monoclonal antibody (G210) were added to one microplate and anti-Aβ42 monoclonal antibody (12F4) acceptor beads were added to the other. Abundance of Aβ40 and Aβ42 was directly proportional to the luminescent signal generated following excitation of donor beads by laser light.

The subject of series [6] is gamma secretase-dependent cleavage of the Notch protein, HeLa cells. Kind of series: Notch processing, split-luciferase assay in HeLa cells. The following applies: ratio HeLa Notch to SY5Y Aβ40. The format is cell-based. The source says: (§5) Notch Processing: (Assay Quantitates Notch Intracellular Domain Release in Cell Lines):
(§6) A “split-luciferase” assay is used to measure inhibition of gamma secretase-dependent cleavage of the Notch protein. In this assay, HeLa cells were made to express a Notch protein lacking its extracellular domain (NotchΔE) fused to an N-terminal fragment of luciferase. The same cells also expressed a C-terminal fragment of luciferase fused to the immunoglobulin J kappa recombination signal sequence binding protein (RBP). Upon NotchΔE cleavage by gamma secretase, a Notch intracellular domain (NICD)-N terminal luciferase protein is generated which translocates to the nucleus and binds the RBP-C terminal luciferase fusion, bringing two independently nonfunctional halves of luciferase together to form a functional luciferase enzyme. The activity of luciferase in these cells is directly proportional to the amount of gamma secretase-cleaved Notch. Luciferase activity is determined by the standard techniques of luciferin addition to lysed cells and measurement of total luminescence.

Series [7] relates to T1, gamma secretase-dependent cleavage of the Notch protein, HeLa cells.
T1 construct: HeLa Notch; other: cell based assay, HeLa cells, NotchΔE split-luciferase
Described as above. The format is cell-based. The following applies: cell based assay, HeLa cells, NotchΔE split-luciferase.
Source text: as §5, §6

Series [8] in a line: Pharmacokinetics in Beagle dogs. The format is in vivo. As to conditions: Dog; for clearance / half-life / bioavailability: Beagle, plasma; for clearance: intravenous; for clearance / half-life / AUC (Norm)(0-x): 0.25 mg/kg; for bioavailability: 0.25 mg/kg IV or PO. How it is done: as §4
A short description of series [9]: Pharmacokinetics in Rhesus monkeys. The following applies: for AUC (Norm)(0-x) / half-life / clearance: 0.25 mg/kg; for half-life / bioavailability / clearance: rhesus monkey, plasma; for bioavailability: 0.25 mg/kg IV or PO; for clearance: intravenous. The format is in vivo. The method, then: as §4
The target in series [10] is semi-purified γ-secretase. Kind of series: In vitro APP processing (C100Flag substrate, semi-purified γ-secretase, MESO Scale ELISA), mouse brain membranes. The format is biochemical. As to conditions: in vitro assay. How it is done:
as §1, §2

The mark [11] stands for this setting: Aβ40, read-out: Tissue autonomous Aβ40, Rat.
Where [12] appears, read: Aβ40, read-out: Tissue autonomous Aβ40, Dog.
[13] abbreviates: Aβ40, read-out: Tissue autonomous Aβ40, Mouse.

Where two headings read alike, the source gives them in different places.

Consider `O=S(=O)(N[C@H]1CC[C@@](c2cc(F)ccc2C(F)(F)F)(S(=O)(=O)c2ccc(C(F)(F)F)cc2)CC1)C(F)(F)F` [Example 1, 1,1,1-trifluoro-N-(4-[5-fluoro-2-(trifluoromethyl)phenyl]-4-{[4-(trifluoromethyl)phenyl]sulfonyl}cyclohexyl)methanesulfonamide], for which the IC50 in series [1] (setting [11]) came out at 1.4 nM; in series [3] (setting [12]), 1.5 nM; in series [5] (Aβ40, read-out: SY5Y Aβ40) it was 1.4 ± 0.9 nM; in series [7] it was 518 nM; in series [10] (setting [13]) it was 2.4 nM. Further, the “minimum inhibition (CSF Aβ40)” value in the series on CSF Aβ40 (24 hrs (day 1) to 144 hrs (day 6)) is recorded as greater than 25%. For the same compound, the “Peak lowering of CSF Aβ40” value with CSF Aβ40 (24 hrs after each dose) is reported as roughly 46%. Moreover, in the series with CSF Aβ40 (over a one week period (168 hrs; 7 days)), the “average daily CSF Aβ40 reduction relative to baseline” value is given as roughly 35%. Moreover, the “tolerability (unformed stool)” value in the series with CSF Aβ40 (over the course of the study) is reported as “no unformed stool or other tolerability issues”. The AUC(0-t) in [2] (read-out: AUC (0-24)) was found to be 138 µM·h. Also, the half-life in [2] (read-out: plasma t ½) was greater than 168 h; in series [4], 126 h; in [8], 713 h; in series [9], 228 h. Moreover, the “AUC (Norm)(0-x)” value in series [4] worked out at 8.7 µM·kg·h/mg; in series [8], 99 µM·kg·h/mg; in [9] it was 385 µM·kg·h/mg. Further, the figures for the clearance in series [4], in series [8] and in series [9] were 3.4 mL/min/kg, 0.234 mL/min/kg and 0.07 mL/min/kg, respectively. Besides, the results for the bioavailability in series [4], in [8] and in series [9] were 64%, 84% and 84%, respectively. In addition, in the series with CSF Aβ40 and Aβ42 (over a 3 week period), the GI toxicity result was “no evidence of GI toxicity”. The “average reduction in CSF Aβ40 levels relative to vehicle-treated controls” value in the series with CSF Aβ40 and Aβ42 (over a 3 week period) is “approximately 40%”. The “average reduction in CSF Aβ42 levels relative to vehicle-treated controls” value in the series on CSF Aβ40 and Aβ42 (over a 3 week period) is given as “approximately 40%”. Besides, the “side-effects leading to study termination” value in the series with CSF Aβ40 and Aβ42 (study terminated after 3 weeks) is given as “respiratory side-effects unconnected with Notch signaling”. The Notch/Aβ40 in [6] came to 370.
On to `O=S(=O)(N[C@H]1CC[C@@](c2cc(F)ccc2F)(S(=O)(=O)c2ccc(C(F)(F)F)cc2)CC1)C(F)(F)F` [Example 62 from U.S. Pat. No. 6,890,956], for which the results for the “AUC (Norm)(0-x)” value in series [4] and in series [8] were 6.0 µM·kg·h/mg and 49.5 µM·kg·h/mg, respectively. Moreover, the results for the clearance in series [4] and in [8] were 5.9 mL/min/kg and 0.383 mL/min/kg, respectively. Moreover, the half-life in series [4] was 101 h; in series [8], 254 h. For the same compound, the bioavailability in [4] was 116%; in [8] it was 55%. Further, the IC50 was 0.99 nM in series [5] (Aβ40, read-out: SY5Y Aβ40); 0.99 nM in series [5] (Aβ42, read-out: SY5Y Aβ42); 154 nM in series [7]. For the same compound, the Notch/Aβ40 in series [6] was 156.
As for `O=S(=O)(N[C@H]1CC[C@@](c2cc(F)ccc2F)(S(=O)(=O)c2ccc(Cl)cc2)CC1)C(F)(F)F` [MRK-560], the IC50 turned out to be 1 nM in series [1] (setting [11]); 0.4 nM in series [1] (Aβ42, read-out: Tissue autonomous Aβ42, Rat); 5.2 nM in series [3] (setting [12]); 1.3 nM in series [3] (Aβ42, read-out: Tissue autonomous Aβ42, Dog); 0.72 nM in series [5] (Aβ40, read-out: SY5Y Aβ40); 0.51 nM in series [5] (Aβ42, read-out: SY5Y Aβ42). Also, the IC50 in [7] is 112 nM; in series [10] (setting [13]), 0.8 nM; in series [10] (Aβ42, read-out: Tissue autonomous Aβ42, Mouse), 0.4 nM. Also, the clearance in series [4] came to 2.2 mL/min/kg; in series [8], 4.7 mL/min/kg; in [9] it was 0.8 mL/min/kg. Further, the results for the half-life in series [4], in series [8] and in series [9] were 26 h, 18 h and 12 h, respectively. Further, the bioavailability in [4] was 67%; in series [8], 14%; in [9], 23%. For the same compound, in [6], the Notch/Aβ40 stood at 155. In addition, the “AUC (Norm)(0-x)” value in series [8] was found to be 1.1 µM·kg·h/mg; in [9], 9.4 µM·kg·h/mg.
